Experimental data reported in US20230192715A1 (priority 2020, published 2023).

Experiments:
[1] = Double-blind placebo controlled randomized clinical trial in major depressive disorder; format: in vivo, human
BDNF = conditions: humans; plasma, healthy volunteers, 14-day Phase 1 study; cited from earlier work
PD95, GluR1 = conditions: in vivo; cited from earlier work
mRNA for NMDAR1 = conditions: in vitro; cited from earlier work
serotonin receptors = conditions: Rickli et al, 2018; cited from earlier work

Compound: CCC(=O)C(C[C@H](C)N(C)C)(c1ccccc1)c1ccccc1 [Dextromethadone]
- persistence of remission ([1]; after discontinuation of treatment): persisted for at least seven days after discontinuation of treatment
- patients with remission of disease (MADRS<10) ([1]; within the first week of treatment, 5% in patients randomized to placebo): over 30%
- BDNF (BDNF): increases BDNF
- levels of PD95, GluR1 (PD95, GluR1): increases levels of PD95, GluR1
- mRNA for NMDAR1 (mRNA for NMDAR1): increases mRNA for NMDAR1

Compound: CN1CC[C@@]23c4c5ccc(O)c4O[C@@H]2[C@H](O)C=C[C@@H]3[C@@H]1C5 [Levomorphine]
- actions at serotonin receptors (serotonin receptors): no actions at serotonin receptors
